The target of one experiment is T1, Aurora B (Homo sapiens, UniProt Q96GD4).
T1 construct: Active Aurora B enzyme (recombinant residues 1-344)
Description: Aurora B enzyme assay (time-resolved fluorescence, histone H3 peptide). The experiment is classed as biochemical. Conditions: 1 mM ATP, 1 hour. As to the method:
To determine Aurora B activity of representative compounds of the invention, Active Aurora B enzyme (recombinant residues 1-344) and INCENP (recombinant GST fusion protein (Upstate)) were incubated in wells of a 384 well plate with biotinylted histone H3 peptide residues 1-21 (Upstate), 1 mM ATP, and various concentrations of inhibitors in a HEPES buffer, pH 7.4 containing MgCl2, sodium othrovanadate, and Triton X-100. After 1 hour, the reaction was stopped with EDTA and anti-phospho-histone H3 Europium Cryptate (Cis-Bio) and SA-APC (Phycolink, Prozyme) were added to detect the phosphopeptide. The amount of phosphorylation was determined by the time-resolved fluorescence ratio of signals at 665 nm and 615 nm. The IC50's were calculated by an exponential fit of the inhibition values with the inhibitor concentrations using Assay Explorer software.

A further experiment addresses T2, Aurora A (Homo sapiens, UniProt O14965).
T2 sequence (O14965 1-403): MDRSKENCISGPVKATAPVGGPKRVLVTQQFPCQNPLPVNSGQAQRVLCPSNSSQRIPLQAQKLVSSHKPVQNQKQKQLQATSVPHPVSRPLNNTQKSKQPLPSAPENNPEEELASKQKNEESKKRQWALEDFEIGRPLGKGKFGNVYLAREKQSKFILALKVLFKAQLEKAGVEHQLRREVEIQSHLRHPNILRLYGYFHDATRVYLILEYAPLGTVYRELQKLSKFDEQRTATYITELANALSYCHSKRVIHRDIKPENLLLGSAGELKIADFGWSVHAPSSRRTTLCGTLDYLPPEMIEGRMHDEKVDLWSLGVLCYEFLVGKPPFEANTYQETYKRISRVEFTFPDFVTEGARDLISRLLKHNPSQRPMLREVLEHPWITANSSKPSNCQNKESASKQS
The experiment is described as follows: Aurora A enzyme assay (time-resolved fluorescence, STK substrate-2). The experiment is classed as biochemical. The settings on record: 1 mM ATP, 1 hour. As to the method:
To determine Aurora A and C activity of representative compounds of the invention, Active Aurora A or C enzyme was incubated in wells of a 384 well plate with biotinylated STK substrate-2 (Upstate), 1 mM ATP, and various concentrations of inhibitors in a Hepes buffer, pH 7.4 containing MgCl2, sodium othrovanadate, and Triton X-100. After 1 hour, the reaction was stopped with EDTA and anti-phospho-STK antibody Europium Cryptate (Upstate) and SA-XL665 (Upstate) were added to detect the phosphopeptide. The amount of phosphorylation was determined by the time-resolved fluorescence ratio of signals at 665 nm and 615 nm. The IC50s were calculated by an exponential fit of the inhibition values with the inhibitor concentrations using Assay Explorer software.

Experiment [1] deals with T3, KDR (Homo sapiens, UniProt P35968). The experiment is described as follows: KDR cell assay. The experiment is classed as cell-based.
Target sequence in this assay (P35968 20-1356, species assumed): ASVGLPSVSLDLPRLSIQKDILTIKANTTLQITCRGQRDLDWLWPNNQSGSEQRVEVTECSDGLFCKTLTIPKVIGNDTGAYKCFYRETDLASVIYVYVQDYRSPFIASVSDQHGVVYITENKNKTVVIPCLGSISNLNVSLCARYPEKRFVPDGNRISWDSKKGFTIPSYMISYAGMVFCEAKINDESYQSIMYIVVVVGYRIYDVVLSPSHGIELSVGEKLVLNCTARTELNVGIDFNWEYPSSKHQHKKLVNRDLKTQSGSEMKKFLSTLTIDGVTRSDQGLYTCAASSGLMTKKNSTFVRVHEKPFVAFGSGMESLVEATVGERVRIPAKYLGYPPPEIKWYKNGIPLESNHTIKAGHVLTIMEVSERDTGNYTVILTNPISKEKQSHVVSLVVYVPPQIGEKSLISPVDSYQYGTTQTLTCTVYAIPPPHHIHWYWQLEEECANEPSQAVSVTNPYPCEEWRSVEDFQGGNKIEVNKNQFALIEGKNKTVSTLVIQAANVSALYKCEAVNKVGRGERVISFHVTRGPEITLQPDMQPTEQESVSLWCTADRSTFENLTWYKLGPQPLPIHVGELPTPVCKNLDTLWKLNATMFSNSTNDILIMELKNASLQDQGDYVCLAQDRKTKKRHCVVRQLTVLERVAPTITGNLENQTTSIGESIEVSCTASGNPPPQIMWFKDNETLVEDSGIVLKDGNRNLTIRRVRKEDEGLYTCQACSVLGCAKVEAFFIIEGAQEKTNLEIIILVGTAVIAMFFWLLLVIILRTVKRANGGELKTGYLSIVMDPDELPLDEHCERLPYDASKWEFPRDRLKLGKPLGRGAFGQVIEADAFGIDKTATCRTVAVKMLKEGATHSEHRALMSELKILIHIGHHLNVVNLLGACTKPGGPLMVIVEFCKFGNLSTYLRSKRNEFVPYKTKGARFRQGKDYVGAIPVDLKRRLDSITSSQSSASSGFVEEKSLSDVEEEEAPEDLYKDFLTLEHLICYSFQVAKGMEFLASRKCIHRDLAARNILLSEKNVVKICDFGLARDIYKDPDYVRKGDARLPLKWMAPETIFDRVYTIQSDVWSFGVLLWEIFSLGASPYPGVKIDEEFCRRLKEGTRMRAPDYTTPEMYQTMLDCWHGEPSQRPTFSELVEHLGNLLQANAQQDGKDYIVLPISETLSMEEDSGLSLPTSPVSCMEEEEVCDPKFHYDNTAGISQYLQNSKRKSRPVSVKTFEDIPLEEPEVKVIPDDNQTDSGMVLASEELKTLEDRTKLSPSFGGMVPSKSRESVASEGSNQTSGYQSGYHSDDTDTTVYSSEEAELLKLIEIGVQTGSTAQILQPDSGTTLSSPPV
The test system of experiment [2] is H1299 cells (Human Non-Small Cell Lung Carcinoma). Description: Induction of polyploidy in H1299 cells, high content analysis. Format: cell-based. The settings on record: NCI-H1299 cells, 48 hours, polyploid = nuclear area >750μ2, read-out: Polyploid HCA IC50. The procedure: To determine the induction of polyploidy in H1299 cells (Human Non-Small Cell Lung Carcinoma), NCI-H1299 were seeded (4K/well) into 96-well culture plates (tissue culture grade, black, flat-clear bottom) and incubated overnight to produce cell-to-plate adherance Inhibitors at varying concentrations were added into duplicate wells containing cells and culture media (RPMI 1640, 10% fetal calf serum) and incubated at 37 C for 48 hours. The plates were then washed with PBS and the adherent cells fixed by incubating with 3% formalin for 1 hour. After washing four times with PBS, the cells were then stained with Hoechst and subjected to fluorescent (3601/460e) microscopic high content analysis to determine the effect of inhibitors on nuclear size. Polyploid cells (>4N) were defined as those having nuclear area >750μ2. […]

Experiment [3] concerns the target T3, KDR. The experiment is described as follows: KDR HTRF in vitro kinase assay. Format: biochemical. Details: purified enzyme (His6-KDR 789-1354, MW 63 kD). The settings on record: 1 mM ATP, 60 minutes. As to the method: To determine the activity of the various kinases, a homogenous time-resolved fluorescence (HTRF) in vitro kinase assay was used. (Mathis, G., HTRF(R) Technology. J Biomol Screen, 1999. 4(6): p. 309-314; Alfred J. Kolb, Paul V. Kaplita, David J. Hayes, Young-Whan Park, Christine Pernell, John S. Major and Gerard Mathis, Drug Discovery Today, 1998, 3, 333-342.)
For example for KDR, 7 ng/well of purified enzyme (His6-KDR 789-1354, MW 63 kD) was mixed with 0.5 μM N-biotinylated substrate (Biotin-Ahx-AEEEYFFLA-amide (SEQ. ID. 1)), various concentrations of inhibitor in reaction buffer (50 mM HEPES, pH 7.1, mM MgCl2, 2 mM MnCl2, 0.1% BSA and 1 mM DTT, […] final volume), ATP (1 mM final conc.) in a black 384-well plate. After 60 minutes incubation at room temperature, the reaction was quenched by addition of a buffered EDTA solution (final approximate concentrations: 30 mM EDTA, 0.1% BSA, 0.1% Triton X-100 and 0.24M KF) and a solution of revelation agents (to give 0.084 ng/well streptavidin-XL-665 (Cis-Bio) and 6.5 ng/well antiphsophotyrosine mAb PT66-K Europium kryptate) was added to the reaction mixture. The quenched reaction was allowed to stand at room temperature for 3 hours and was then read in a time-resolved fluorescence detector (InVision, Perkin-Elmer) at 620 nm and 665 nm sequentially with excitation. The ratio between the signal of 620 nm and 665 nm was used in the calculation of the IC50.
Target sequence in this assay (P35968 789-1354): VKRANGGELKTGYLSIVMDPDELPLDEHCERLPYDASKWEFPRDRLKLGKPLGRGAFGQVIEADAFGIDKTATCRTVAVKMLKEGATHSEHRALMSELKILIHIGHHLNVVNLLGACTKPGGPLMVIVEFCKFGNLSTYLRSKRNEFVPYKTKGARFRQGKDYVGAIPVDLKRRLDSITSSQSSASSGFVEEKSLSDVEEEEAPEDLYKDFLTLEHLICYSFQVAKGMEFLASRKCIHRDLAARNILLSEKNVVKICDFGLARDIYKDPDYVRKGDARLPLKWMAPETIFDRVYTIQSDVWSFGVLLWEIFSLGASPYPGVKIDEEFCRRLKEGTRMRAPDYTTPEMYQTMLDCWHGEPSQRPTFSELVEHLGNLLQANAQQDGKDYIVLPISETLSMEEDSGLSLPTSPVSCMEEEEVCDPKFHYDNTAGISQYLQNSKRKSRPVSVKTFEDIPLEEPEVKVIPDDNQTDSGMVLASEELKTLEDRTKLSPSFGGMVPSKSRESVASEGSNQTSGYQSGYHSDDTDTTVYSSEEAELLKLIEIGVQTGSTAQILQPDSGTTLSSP
(In general: Time-resolved FRET reads energy transfer from a long-lived donor to a nearby acceptor.)

Where only a bound is given, the exact number is not on record here.

T1 sequence (Q96GD4 whole entry, the tested form may be a part): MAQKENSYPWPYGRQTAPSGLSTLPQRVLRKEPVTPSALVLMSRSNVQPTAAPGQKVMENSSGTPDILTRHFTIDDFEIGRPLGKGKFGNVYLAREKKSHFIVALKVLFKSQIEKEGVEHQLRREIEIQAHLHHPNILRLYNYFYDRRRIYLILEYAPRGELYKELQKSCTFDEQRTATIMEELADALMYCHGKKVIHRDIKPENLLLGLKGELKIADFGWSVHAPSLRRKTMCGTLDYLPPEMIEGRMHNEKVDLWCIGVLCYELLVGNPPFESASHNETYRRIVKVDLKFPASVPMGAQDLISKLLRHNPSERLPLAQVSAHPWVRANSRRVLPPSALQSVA
T1 sequence (Q9NQS7 826-918 partner limits assumed): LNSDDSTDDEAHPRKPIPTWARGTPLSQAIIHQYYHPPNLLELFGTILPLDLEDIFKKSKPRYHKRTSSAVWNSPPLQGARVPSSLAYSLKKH

For the molecule `O=C(Nc1ccc(-c2ccc3c(-c4cnn(CCN5CCOCC5)c4)n[nH]c3c2)cc1)Nc1cccc(F)c1` [Example 6, N-(3-fluorophenyl)-N′-(4-{3-[1-(2-morpholin-4-ylethyl)-1H-pyrazol-4-yl]-1H-indazol-6-yl}phenyl)urea], the IC50 (usually the concentration that gives 50% inhibition) at Aurora B was 21.2 nM; against Aurora A it was 1000 nM; against KDR [1] it was 187 nM; in experiment [2] it was 18 nM; at KDR [3], 86.1 nM.

For `Cn1cc(-c2n[nH]c3cc(-c4cccc(CNC(=O)Nc5cccc(F)c5)c4)ccc23)cn1` [Example 29, N-(3-fluorophenyl)-N′-{3-[3-(1-methyl-1H-pyrazol-4-yl)-1H-indazol-6-yl]benzyl}urea], the IC50 on Aurora B is 25 nM; against Aurora A, 3340 nM; in experiment [2], 113 nM; against KDR [3], 137 nM.

For the molecule `O=C(Nc1ccc(-c2ccc3c(-c4cnn[nH]4)n[nH]c3c2)cc1)Nc1cccc(F)c1` [Example 21, N-(3-fluorophenyl)-N′-{4-[3-(1H-1,2,3-triazol-5-yl)-1H-indazol-6-yl]phenyl}urea], the IC50 at Aurora B was found to be 58.3 nM; at Aurora A, 10200 nM; in experiment [2], 128 nM; against KDR [3], 154 nM.

On to `O=C(Nc1ccc(-c2ccc3c(-c4cnn(C5CCNCC5)c4)n[nH]c3c2)cc1)Nc1cccc(F)c1` [Example 16, N-(3-fluorophenyl)-N′-{4-[3-(1-piperidin-4-yl-1H-pyrazol-4-yl)-1H-indazol-6-yl]phenyl}urea], for which the 50% inhibitory concentration (IC50) is 10.9 nM against Aurora B; greater than 12500 nM on Aurora A; 135 nM against KDR [1]; 216 nM in experiment [2]; 44.6 nM against KDR [3].

With `Cc1cc(NC(=O)Nc2ccc(-c3ccc4c(-c5cnn(C)c5)n[nH]c4c3)cc2)no1` [Example 30, N-(5-methylisoxazol-3-yl)-N′-{4-[3-(1-methyl-1H-pyrazol-4-yl)-1H-indazol-6-yl]phenyl}urea], the IC50 at Aurora B amounted to 10.3 nM; against Aurora A, 299 nM; against KDR [1], 123 nM; in experiment [2], 1 nM; against KDR [3], 32.2 nM.

Take `Cc1cccc(NC(=O)Nc2ccc(-c3ccc4c(-c5cnn[nH]5)n[nH]c4c3)cc2)c1` [Example 3, N-(3-methylphenyl)-N′-{4-[3-(1H-1,2,3-triazol-5-yl)-1H-indazol-6-yl]phenyl}urea]: the IC50 against Aurora B was determined as 40.5 nM; against Aurora A, 2490 nM; against KDR [1] it was 316 nM; in experiment [2], 35 nM; against KDR [3], 45 nM.

For `Cn1cc(-c2n[nH]c3cc(-c4ccc(NC(=O)Nc5ccccc5Cl)cc4)ccc23)cn1` [Example 23, N-(2-chlorophenyl)-N′-{4-[3-(1-methyl-1H-pyrazol-4-yl)-1H-indazol-6-yl]phenyl}urea], the IC50 amounted to 24.9 nM at Aurora B; 246 nM against Aurora A; 355 nM on KDR [1]; 10 nM in experiment [2]; 80.7 nM on KDR [3].

For `Cc1cccc(NC(=O)Nc2ccc(-c3ccc4c(-c5cnn(C)c5)n[nH]c4c3)cc2)c1` [Example 2, N-(3-methylphenyl)-N′-{4-[3-(1-methyl-1H-pyrazol-4-yl)-1H-indazol-6-yl]phenyl}urea], the IC50 at Aurora B is 17 nM; against Aurora A, greater than 12500 nM; at KDR [1] it was 46 nM; in experiment [2], 6 nM; against KDR [3], 27.4 nM.

`O=C(Nc1ccc(-c2ccc3c(-c4cnn(CCO)c4)n[nH]c3c2)cc1)Nc1cccc(F)c1` [Example 10, N-(3-fluorophenyl)-N′-(4-{3-[1-(2-hydroxyethyl)-1H-pyrazol-4-yl]-1H-indazol-6-yl}phenyl)urea]: the IC50 at Aurora B was 23.6 nM; at Aurora A, 294 nM; at KDR [1], 206 nM; in experiment [2], 43 nM; against KDR [3], 51.1 nM.

Take `Cn1cc(-c2n[nH]c3cc(-c4ccc(NC(=O)Nc5ccccc5C(F)(F)F)cc4)ccc23)cn1` [Example 26, N-{4-[3-(1-methyl-1H-pyrazol-4-yl)-1H-indazol-6-yl]phenyl}-N′-[2-(trifluoromethyl)phenyl]urea]: the IC50 on Aurora B is 62.3 nM; at Aurora A, greater than 12500 nM; in experiment [2], 13 nM; against KDR [3] it was 325 nM.

For `Cc1cccc(NC(=O)Nc2ccc(-c3ccc4c(-c5cnn(CCO)c5)n[nH]c4c3)cc2)c1` [Example 12, N-(4-{3-[1-(2-hydroxyethyl)-1H-pyrazol-4-yl]-1H-indazol-6-yl}phenyl)-N′-(3-methylphenyl)urea], the IC50 was 44.1 nM on Aurora B; greater than 12500 nM on Aurora A; 176 nM against KDR [1]; 55 nM in experiment [2]; 60 nM on KDR [3].

On to `Cn1cc(-c2n[nH]c3cc(-c4ccc(NC(=O)Nc5cccc(Cl)c5)cc4)ccc23)cn1` [Example 22, N-(3-chlorophenyl)-N′-{4-[3-(1-methyl-1H-pyrazol-4-yl)-1H-indazol-6-yl]phenyl}urea], for which the IC50 against Aurora B is 32.5 nM; against Aurora A it was 267 nM; on KDR [1] it was 47.5 nM; in experiment [2], 1 nM; at KDR [3] it was 14.8 nM.

On to `O=C(Nc1ccc(-c2ccc3c(-c4ccn[nH]4)n[nH]c3c2)cc1)Nc1cccc(F)c1` [Example 8, N-(3-fluorophenyl)-N′-{4-[3-(1H-pyrazol-5-yl)-1H-indazol-6-yl]phenyl}urea], for which the IC50 against Aurora B was 23.3 nM; against Aurora A, 3400 nM; in experiment [2], 12 nM; against KDR [3], 525 nM.

Regarding `Cn1cc(-c2n[nH]c3cc(-c4ccc(NC(=O)Nc5ccc(Cl)cc5)cc4)ccc23)cn1` [Example 20, N-(4-chlorophenyl)-N′-{4-[3-(1-methyl-1H-pyrazol-4-yl)-1H-indazol-6-yl]phenyl}urea], the 50% inhibitory concentration (IC50) was 24.7 nM at Aurora B, greater than 12500 nM against Aurora A, less than 1 nM in experiment [2] and 122 nM on KDR [3].

As to `Cn1cc(-c2n[nH]c3cc(-c4ccc(NC(=O)Nc5ccc(C(F)(F)F)cc5)cc4)ccc23)cn1` [Example 19, N-{4-[3-(1-methyl-1H-pyrazol-4-yl)-1H-indazol-6-yl]phenyl}-N′-[4-(trifluoromethyl)phenyl]urea], the IC50 was determined as 108 nM on Aurora B, 10800 nM on Aurora A, 216 nM at KDR [1] and 45.1 nM at KDR [3].

(Values after patent US8293738B2, “Indazole inhibitors of kinase” (Abbott Laboratories, priority 2010, dated 2012).)
